From ChEMBL document CHEMBL4613209, “Quinolone hybrids and their anti-cancer activities: An overview” (Eur J Med Chem, 2019)
≈ marks a conversion by molar mass, not a printed value. Each block holds one molecule with its values, some of them ahead of it.

Columns and labels:
HL-60 [1] = assay: Anticancer activity against human HL60 cells by MTT assay; assay type: functional, cell-based
A549 [2] = assay: Anticancer activity against human A549 cells by MTT assay; assay type: functional, cell-based
HepG2 [3] = assay: Anticancer activity against human HepG2 cells by MTT assay; assay type: functional, cell-based
HT-29 [4] = assay: Anticancer activity against human HT-29 cells by MTT assay; assay type: functional, cell-based
HeLa [5] = assay: Anticancer activity against human HeLa cells by MTT assay; assay type: functional, cell-based
Histone deacetylase = assay: Inhibition of HDAC (unknown origin); assay type: protein assay, Homo sapiens
MCF7 [6] = assay: Antiproliferative activity against human MCF7 cells by CCK8 assay; assay type: functional, cell-based
PC-3 = assay: Antiproliferative activity against human PC3 cells by CCK8 assay; assay type: functional, cell-based
Tubulin = assay: Inhibition of tubulin polymerization (unknown origin); assay type: protein-complex assay, Homo sapiens
A549 [7] = assay: Antiproliferative activity against human A549 cells by CCK8 assay; assay type: functional, cell-based
HeLa [8] = assay: Antiproliferative activity against human HeLa cells by CCK8 assay; assay type: functional, cell-based
HepG2 [9] = assay: Antiproliferative activity against human HepG2 cells by CCK8 assay; assay type: functional, cell-based
MCF-10A = assay: Antiproliferative activity against human MCF10A cells by CCK8 assay; assay type: cell-based
PANC-1 [10] = assay: Growth inhibition of human PANC1 cells after 48 hrs by SRB assay; assay type: functional; details: PANC-1, 48 h
MDA-MB-231 [11] = assay: Growth inhibition of human MDA-MB-231 cells after 48 hrs by SRB assay; assay type: functional; details: MDA-MB-231, 48 h
SiHa = assay: Growth inhibition of human SiHa cells after 48 hrs by SRB assay; assay type: functional
[12] = Toxicity in mouse xenografted with human CX-1 cells; details: in vivo
SK-OV-3 = assay: Anticancer activity against human SKOV3 cells after 48 hrs by SRB assay; assay type: functional, cell-based; details: SK-OV-3, 48 h
[13] = Toxicity in mouse xenografted with human MB-9812 cells
PANC-1 [14] = assay: Anticancer activity against human PANC1 cells after 48 hrs by SRB assay; assay type: functional, cell-based; details: PANC-1, 48 h
MCF7-DOX = assay: Anticancer activity against human MCF7/Dox cells after 48 hrs by SRB assay; assay type: functional, cell-based
A549 [15] = assay: Anticancer activity against human A549 cells after 48 hrs by SRB assay; assay type: functional, cell-based; details: A549, 48 h
MCF7 [16] = assay: Cytotoxicity against human MCF7 cells assessed as reduction in cell viability after 72 hrs by MTT assay; assay type: functional, cell-based; details: MCF7, 72 h
HeLa [17] = assay: Anticancer activity against human HeLa cells after 48 hrs by SRB assay; assay type: functional, cell-based
HepG2 [18] = assay: Anticancer activity against human HepG2 cells after 48 hrs by SRB assay; assay type: functional, cell-based; details: HepG2, 48 h
MCF7 [19] = assay: Anticancer activity against human MCF7 cells after 48 hrs by SRB assay; assay type: functional, cell-based; details: MCF7, 48 h
MDA-MB-231 [20] = assay: Cytotoxicity against human MDA-MB-231 cells assessed as reduction in cell viability after 48 hrs by MTT assay; assay type: functional, cell-based; details: MDA-MB-231, 48 h
T47D = assay: Cytotoxicity against human T47D cells assessed as reduction in cell viability after 48 hrs by MTT assay; assay type: functional, cell-based
MCF7 [21] = assay: Cytotoxicity against human MCF7 cells assessed as reduction in cell viability after 48 hrs by MTT assay; assay type: functional, cell-based; details: MCF7, 48 h
DU-145 = assay: Anticancer activity against human DU145 cells after 48 hrs by SRB assay; assay type: functional, cell-based; details: DU-145, 48 h
HL-60 [22] = assay: Anticancer activity against human HL60 cells after 48 hrs by SRB assay; assay type: functional, cell-based; details: HL-60, 48 h
HCT-116 = assay: Anticancer activity against human HCT116 cells after 48 hrs by SRB assay; assay type: functional, cell-based; details: HCT-116, 48 h
A549 [23] = assay: Anticancer activity against human A549 cells; assay type: functional, cell-based
P388 [24] = assay: Cytotoxicity against mouse P388 cells assessed as reduction in cell viability; assay type: functional, cell-based
P388 [25] = assay: Anticancer activity against mouse P388 cells; assay type: functional, cell-based
B16-F10 [26] = assay: Anticancer activity against mouse B16F10 cells; assay type: functional, cell-based
[27] = tested on: Lewis lung carcinoma cell line; assay: Anticancer activity against mouse LLC cells; assay type: functional, cell-based
MCF7 [28] = assay: Anticancer activity against human MCF7 cells; assay type: functional, cell-based
B16-F10 [29] = assay: Cytotoxicity against mouse B16F10 cells assessed as reduction in cell viability; assay type: functional, cell-based
HCT-8 = assay: Anticancer activity against human HCT8 cells; assay type: functional, cell-based
HT-29 [30] = assay: Cytotoxicity against human HT-29 cells assessed as reduction in cell viability; assay type: functional, cell-based
P388 [31] = assay: Anticancer activity against doxorubicin resistant mouse P388 cells; assay type: functional, cell-based
HT-29 [32] = assay: Anticancer activity against human HT-29 cells; assay type: functional, cell-based
P388 [33] = assay: Cytotoxicity against doxorubicin resistant mouse P388 cells assessed as reduction in cell viability; assay type: functional, cell-based
A549 [34] = assay: Cytotoxicity against human A549 cells assessed as reduction in cell viability; assay type: functional, cell-based
SMMC-7721 = assay: Cytotoxicity against human SMMC7721 cells assessed as reduction in cell viability by MTT assay; assay type: functional, cell-based
HUVEC = assay: Cytotoxicity against human HUVEC cells assessed as reduction in cell viability by MTT assay; assay type: cell-based
SW1990 = assay: Cytotoxicity against human SW1990 cells assessed as reduction in cell viability by MTT assay; assay type: functional, cell-based
K562 = assay: Anticancer activity against human K562 cells; assay type: functional, cell-based

IC50 (HL-60 [1]): 13.6 to 66 µM
IC50 (A549 [2]): 13.6 to 66 µM
IC50 (HepG2 [3]): 13.6 to 66 µM
IC50 (HT-29 [4]): 13.6 to 66 µM
IC50 (HeLa [5]): 13.6 to 66 µM
Compound: CCOC(=O)c1cn(Cc2cn(-c3ccc(F)cc3)nn2)c2ccc(Cl)cc2c1=O

IC50 (Histone deacetylase): 0.021 to 0.85 µM
IC50 (MCF7 [6]): 0.3 to 4.9 µM
IC50 (PC-3): 0.3 to 4.9 µM
IC50 (Tubulin): 1.79 to 6.36 µM
IC50 (A549 [7]): 0.3 to 4.9 µM
IC50 (HeLa [8]): 0.3 to 4.9 µM
IC50 (HepG2 [9]): 0.3 to 4.9 µM
Compound: C[C@H]1COc2c(N3CCN(C)CC3)c(F)cc3c(=O)c(C(=O)NCc4cn(CCCCCCC(=O)NO)nn4)cn1c23
IC50 (MCF-10A): > 100 µM

IC50 (Histone deacetylase): 0.021 to 0.85 µM
IC50 (MCF7 [6]): 0.3 to 12.8 µM
IC50 (PC-3): 0.3 to 12.8 µM
IC50 (Tubulin): 1.79 to 6.36 µM
IC50 (A549 [7]): 0.3 to 12.8 µM
IC50 (HeLa [8]): 0.3 to 12.8 µM
IC50 (HepG2 [9]): 0.3 to 12.8 µM
Compound: C[C@H]1COc2c(N3CCN(C)CC3)c(F)cc3c(=O)c(C(=O)NCc4cn(CCCCCC(=O)NO)nn4)cn1c23
IC50 (MCF-10A): > 100 µM

GI50 (PANC-1 [10]): 0.06 to 2 µM
GI50 (MDA-MB-231 [11]): 0.06 to 2 µM
Compound: CCn1cc(C(=O)O)c(=O)c2cnc(N3CCN(C(=O)CCSc4nnnn4-c4cc(OC)c(OC)c(OC)c4)CC3)nc21
GI50 (SiHa): 0.06 to 2 µM

Compound: COc1cc([C@@H]2c3cc4c(cc3[C@@H](O[C@@H]3O[C@@H]5CO[C@@H](C)O[C@H]5[C@H](O)[C@H]3O)[C@H]3COC(=O)[C@H]23)OCO4)cc(OC)c1O [ETOPOSIDE]
LD50 [12]: 64 mg/kg
IC50 (SK-OV-3): 2.91 to 50 µM
LD50 [13]: 64 mg/kg
IC50 (PANC-1 [14]): 2.91 to 50 µM
IC50 (MCF7-DOX): 2.91 to 50 µM
IC50 (A549 [15]): 2.91 to 50 µM
IC50 (MCF7 [16]): 2.91 to 50 µM
IC50 (HeLa [17]): 2.91 to 50 µM
IC50 (HepG2 [18]): 2.91 to 50 µM
IC50 (MCF7 [19]): 2.91 to 50 µM
IC50 (MDA-MB-231 [20]): 11.8 to 15.7 µM
IC50 (T47D): 11.8 to 15.7 µM
IC50 (MCF7 [21]): 11.8 to 15.7 µM
IC50 (DU-145): 2.91 to 50 µM
IC50 (HL-60 [22]): 2.91 to 50 µM
IC50 (HCT-116): 2.91 to 50 µM

Compound: CCC[C@H](N)C(=O)NC1CCN(C2C(F)=Cc3c4n(cc(C(=O)O)c3=O)-c3ccccc3OC42)C1 (some centres undefined)
LD50 [12]: 59.6 mg/kg
IC50 (A549 [23]): 0.03 to 0.49 µM
LD50 [13]: 59.6 mg/kg
IC50 (P388 [24]): 0.01 to 1 µg/mL (≈ 0.0207 to 2.07 µM)
IC50 (P388 [25]): 0.03 to 0.49 µM
IC50 (B16-F10 [26]): 0.03 to 0.49 µM
IC50 [27]: 0.03 to 0.49 µM
IC50 (MCF7 [28]): 0.03 to 0.49 µM
IC50 (B16-F10 [29]): 0.01 to 1 µg/mL (≈ 0.0207 to 2.07 µM)
IC50 (HCT-8): 0.03 to 0.49 µM
IC50 (HT-29 [30]): 0.01 to 1 µg/mL (≈ 0.0207 to 2.07 µM)
IC50 (P388 [31]): 0.03 to 0.49 µM
IC50 (HT-29 [32]): 0.03 to 0.49 µM
IC50 (P388 [33]): 0.01 to 1 µg/mL (≈ 0.0207 to 2.07 µM)
IC50 (A549 [34]): 0.01 to 1 µg/mL (≈ 0.0207 to 2.07 µM)

Compound: COc1ccc2cc3[n+](cc2c1OC)CCc1cc2c(cc1-3)OCO2 [BERBERINE]
IC50 (SMMC-7721): 18.3 to 65.6 µM
IC50 (HUVEC): 18.3 to 65.6 µM
IC50 (SW1990): 18.3 to 65.6 µM

IC50 (K562): 64.1 µM
Compound: NC(=O)c1cn([C@@H]2O[C@H](CO)[C@@H](O)[C@H]2O)c2ccc(Nc3ccccc3)cc2c1=O
